The source made the active and inactive calls. The calls are words filed in the database; no cut-off is given here.
How the values were obtained:
[1] = Prodrug activation in phosphate buffer assessed as emetine formation up to 48 hrs at pH 5.5 by HPLC analysis; details: pH 5.5, 48 h
[2] = Chemical stability of the compound in phosphate buffer up to 5 days at pH 7.4 by HPLC analysis; format: physicochemical; details: for remaining at 120 h: phosphate buffer, pH 7.4, read-out: Stability
PC-3 [3] = assay: Cytotoxicity against human PC3 cells measured on day 7 by MTT assay; format: functional, cell-based
LNCaP [4] = assay: Cytotoxicity against human LNCAP cells measured on day 7 by MTT assay; format: functional, cell-based
Mus musculus [5] = assay: Toxicity in Balb/c mouse assessed as weight loss at 33 mg/kg, iv qd administered as bolus for 5 days measured within 48 hrs relative to untreated control; format: organism-based; design: dose 33 mg/kg, route intravenous; details: in vivo
Mus musculus [6] = assay: Toxicity in Balb/c mouse assessed as weight loss at 33 mg/kg, iv qd administered as bolus for 5 days measured within 24 hrs (reference value: 1.7%); format: organism-based; design: dose 33 mg/kg, route intravenous; details: in vivo
Mus musculus [7] = assay: Toxicity in Balb/c mouse assessed as lethargy at 33 mg/kg, iv qd administered as bolus for 5 days measured within 48 hrs; format: organism-based; design: dose 33 mg/kg, route intravenous; details: in vivo
Mus musculus [8] = assay: Toxicity in Balb/c mouse assessed as mortality at 33 mg/kg, iv qd administered as bolus for 5 days measured up to 5 days; format: organism-based; design: dose 33 mg/kg, route intravenous; details: in vivo, 120 h
Mus musculus [9] = assay: Toxicity in Balb/c mouse assessed as mortality at 100 mg/kg, iv administered as bolus measured within 48 hrs; format: organism-based; design: dose 100 mg/kg, route intravenous; details: in vivo
PC-3 [10] = assay: Cytotoxicity against human PC3 cells by MTT assay; format: functional, cell-based; details: TDE = time-dependent effect
DU-145 [11] = assay: Cytotoxicity against human DU145 cells by MTT assay; format: functional, cell-based; details: TDE = time-dependent effect
DU-145 [12] = assay: Cytotoxicity against human DU145 cells measured on day 7 by MTT assay; format: functional, cell-based
LNCaP [13] = assay: Cytotoxicity against human LNCAP cells by MTT assay; format: functional, cell-based; details: TDE = time-dependent effect
DU-145 [14] = assay: Cytotoxicity against human DU145 cells measured on day 5 by MTT assay; format: functional, cell-based
DU-145 [15] = assay: Cytotoxicity against human DU145 cells measured on day 3 by MTT assay; format: functional, cell-based
PC-3 [16] = assay: Cytotoxicity against human PC3 cells measured on day 3 by MTT assay; format: functional, cell-based
PC-3 [17] = assay: Cytotoxicity against human PC3 cells measured on day 5 by MTT assay; format: functional, cell-based
LNCaP [18] = assay: Cytotoxicity against human LNCAP cells measured on day 3 by MTT assay; format: functional, cell-based
LNCaP [19] = assay: Cytotoxicity against human LNCAP cells measured on day 5 by MTT assay; format: functional, cell-based
[20] = Chemical stability of the compound in phosphate buffer up to 48 hrs at pH 6.5 by HPLC analysis; format: physicochemical; details: pH 6.5, 48 h
[21] = Chemical stability of the compound in phosphate buffer up to 48 hrs at pH 5.5 by HPLC analysis; format: physicochemical; details: pH 5.5, 48 h
Mus musculus [22] = assay: Toxicity in Balb/c mouse assessed as adverse effects at 100 mg/kg, iv qd administered as bolus for 5 days measured up to 3 weeks; format: organism-based; design: dose 100 mg/kg, route intravenous; details: in vivo
Mus musculus [23] = assay: Toxicity in Balb/c mouse assessed as change in body weight at 100 mg/kg, iv qd administered as bolus for 5 days measured within 48 hrs relative to control; format: organism-based; design: dose 100 mg/kg, route intravenous; details: in vivo
Mus musculus [24] = assay: Toxicity in Balb/c mouse assessed as adverse effects at 100 mg/kg, iv qd administered as bolus for 5 days; format: organism-based; design: dose 100 mg/kg, route intravenous; details: in vivo, 120 h
PC-3 [25] = assay: Ratio of compound IC50 to emetine IC50 for human PC3 cells measured on day 5 at pH <7 by MTT assay; format: functional
PC-3 [26] = assay: Ratio of compound IC50 to emetine IC50 for human PC3 cells measured on day 5 at pH 7.4 by MTT assay; format: functional

## CC[C@H]1CN2CCc3cc(OC)c(OC)cc3[C@@H]2C[C@@H]1C[C@@H]1c2cc(OC)c(OC)cc2CCN1C(=O)/C=C(/C)C(=O)O [listing 1 of 2 here]
[1]
  Drug metabolism: Active
[2]; buffer, pH 7.4, 120 h
  Stability: 100%
PC-3 [3]; pc-3
  IC50: 0.378 µM
LNCaP [4]; lncap
  IC50: 0.368 µM

## CC[C@H]1CN2CCc3cc(OC)c(OC)cc3[C@@H]2C[C@@H]1C[C@H]1NCCc2cc(OC)c(OC)cc21.Cl.Cl [EMETINE HYDROCHLORIDE]
Mus musculus [5]
  Activity: 3.6%
Mus musculus [6]
  Activity: 4.5%
Mus musculus [7]
  Activity: Toxic
Mus musculus [8]
  Activity: Non-toxic
Mus musculus [9]
  Activity: Toxic
PC-3 [10]
  Activity: tde
DU-145 [11]
  Activity: tde
DU-145 [12]
  Activity: Dose-dependent effect
DU-145 [12]; DU-145, 168 h
  IC50: 0.0237 µM
LNCaP [13]
  Activity: tde
DU-145 [14]
  Activity: Dose-dependent effect
DU-145 [14]; DU-145, 120 h
  IC50: 0.0253 µM
DU-145 [15]
  Activity: Dose-dependent effect
DU-145 [15]; DU-145, 72 h
  IC50: 0.0329 µM
PC-3 [3]
  Activity: Dose-dependent effect
PC-3 [3]; Homo sapiens, PC-3, 168 h
  IC50: 0.0294 µM
PC-3 [16]
  Activity: Dose-dependent effect
PC-3 [16]; PC-3, 72 h
  IC50: 0.0351 µM
PC-3 [17]
  Activity: Dose-dependent effect
PC-3 [17]; PC-3, 120 h
  IC50: 0.0268 µM
LNCaP [4]
  Activity: Dose-dependent effect
LNCaP [4]; Homo sapiens, LNCaP, 168 h
  IC50: 0.0316 µM
LNCaP [18]
  Activity: Dose-dependent effect
LNCaP [18]; 72 h
  IC50: 0.0379 µM
LNCaP [19]
  Activity: Dose-dependent effect

## CC[C@H]1CN2CCc3cc(OC)c(OC)cc3[C@@H]2C[C@@H]1C[C@@H]1c2cc(OC)c(OC)cc2CCN1C(=S)SCc1ccccc1
[20]
  Stability: Stable
[21]
  Stability: Stable
PC-3 [3]; Homo sapiens, PC-3, 168 h
  IC50: 1.56 µM
PC-3 [16]
  Activity: Active
PC-3 [17]
  Activity: Active
LNCaP [4]; Homo sapiens, LNCaP, 168 h
  IC50: 1.97 µM

## CC[C@H]1CN2CCc3cc(OC)c(OC)cc3[C@@H]2C[C@@H]1C[C@@H]1c2cc(OC)c(OC)cc2CCN1C(=O)/C=C(/C)C(=O)O [listing 2 of 2 here]
PC-3 [17]
  Activity: Active

## CC[C@H]1CN2CCc3cc(OC)c(OC)cc3[C@@H]2C[C@@H]1C[C@@H]1c2cc(OC)c(OC)cc2CCN1C(=S)NCc1ccccc1
[20]
  Stability: Stable
[21]
  Stability: Stable
PC-3 [3]; Homo sapiens, PC-3, 168 h
  IC50: 6.92 µM
PC-3 [16]
  Activity: Active
PC-3 [17]
  Activity: Active
LNCaP [4]; Homo sapiens, LNCaP, 168 h
  IC50: 2.06 µM

## CC[C@H]1CN2CCc3cc(OC)c(OC)cc3[C@@H]2C[C@@H]1C[C@@H]1c2cc(OC)c(OC)cc2CCN1C(=O)/C=C(/CC(=O)[O-])C(=O)[O-].[Na+].[Na+]
[1]
  Drug metabolism: Active
[2]
  remaining at 120 h: 100%
PC-3 [3]; Homo sapiens, PC-3, 168 h
  IC50: 2.89 µM
PC-3 [16]
  Activity: Active
PC-3 [17]
  Activity: Active
LNCaP [4]; Homo sapiens, LNCaP, 168 h
  IC50: 5.46 µM

## CC[C@H]1CN2CCc3cc(OC)c(OC)cc3[C@@H]2C[C@@H]1C[C@@H]1c2cc(OC)c(OC)cc2CCN1S(=O)(=O)c1ccc(OC)cc1
[20]
  Stability: Stable
[21]
  Stability: Stable
PC-3 [3]; Homo sapiens, PC-3, 168 h
  IC50: 6.08 µM
PC-3 [17]
  Activity: Active
LNCaP [4]; Homo sapiens, LNCaP, 168 h
  IC50: 3.15 µM

## CC[C@H]1CN2CCc3cc(OC)c(OC)cc3[C@@H]2C[C@@H]1C[C@@H]1c2cc(OC)c(OC)cc2CCN1C(=O)NCc1ccc(Cl)cc1
[20]
  Stability: Stable
[21]
  Stability: Stable
PC-3 [3]; Homo sapiens, PC-3, 168 h
  IC50: 10 µM
PC-3 [16]
  Activity: Active
PC-3 [17]
  Activity: Active
LNCaP [4]; Homo sapiens, LNCaP, 168 h
  IC50: 5.41 µM

## CC[C@H]1CN2CCc3cc(OC)c(OC)cc3[C@@H]2C[C@@H]1C[C@@H]1c2cc(OC)c(OC)cc2CCN1C(=O)NCc1ccc(OC)cc1
[20]
  Stability: Stable
[21]
  Stability: Stable
PC-3 [3]; Homo sapiens, PC-3, 168 h
  IC50: 3.67 µM
PC-3 [16]
  Activity: Active
PC-3 [17]
  Activity: Active
LNCaP [4]; Homo sapiens, LNCaP, 168 h
  IC50: 7.84 µM

## CC[C@H]1CN2CCc3cc(OC)c(OC)cc3[C@@H]2C[C@@H]1C[C@@H]1c2cc(OC)c(OC)cc2CCN1C(=O)/C=C(/C)C(=O)[O-].[Na+]
Mus musculus [22]
  Activity: Non-toxic
Mus musculus [23]
  Activity: Non-toxic
Mus musculus [24]
  Activity: Non-toxic
PC-3 [25]
  Ratio IC50: 2.5
PC-3 [26]
  Ratio IC50: 16.8
[1]
  Drug metabolism: Active
[2]
  remaining at 120 h: 100%
PC-3 [3]; Homo sapiens, PC-3, 168 h
  IC50: 0.428 µM
LNCaP [4]; Homo sapiens, LNCaP, 168 h
  IC50: 0.458 µM

## CC[C@H]1CN2CCc3cc(OC)c(OC)cc3[C@@H]2C[C@@H]1C[C@@H]1c2cc(OC)c(OC)cc2CCN1C(=S)NCc1ccc(OC)cc1
[20]
  Stability: Stable
[21]
  Stability: Stable
PC-3 [3]; Homo sapiens, PC-3, 168 h
  IC50: 5 µM
PC-3 [17]
  Activity: Active
LNCaP [4]; Homo sapiens, LNCaP, 168 h
  IC50: 3.39 µM
